From patent US20240199618A1, “NOVEL N-ACYL-[3-SUBSTITUTED]-[8-SUBSTITUTED]-5,6-DIHYDRO-[1,2,4]TRIAZOLO[4,3-a]PYRAZINES AS SELECTIVE NK-3 RECEPTOR ANTAGONISTS, PHARMACEUTICAL COMPOSITION, METHODS FOR USE IN NK-3 RECEPTOR-MEDIATED DISORDERS” (Ogeda SA, priority 2013, published 2024)
Like-named read-outs stand apart in the source and are kept apart here.

Assays:
[1] = target: human NK-1 receptor (Homo sapiens (Human), UniProt P25103); experiment: Selectivity assay: [3H] substance P binding, human NK-1 receptor; details: 2 nM [3H] substance P, CHO membranes; read-out: hNK-1 (Ki)
Procedure: Selectivity of the compounds of the invention was determined over the other human NK receptors, namely NK-1 and NK-2 receptors.
The affinity of compounds of the invention for the NK-1 receptor was evaluated in CHO recombinant cells which express the human NK-1 receptor. Membrane suspensions were prepared from these cells. The following radioligand: [^3H] substance P (PerkinElmer Cat #NET111520) was used in this assay. Binding assays were performed in a 50 mM Tris/5 mM MnCl2/150 mM NaCl/0.1% BSA at pH 7.4. Binding assays consisted of 25 μl of membrane suspension (approximately 5 μg of protein/well in a 96 well plate), 50 μl of compound or reference ligand (Substance P) at increasing concentrations (diluted in assay buffer) and 2 nM [^3H] substance P. The plate was incubated 60 min at 25° C. in a water bath and then filtered over GF/C filters (Perkin Elmer, 6005174, presoaked in 0.5% PEI for 2 h at room temperature) with a Filtration unit (Perkin Elmer). The radioactivity retained on the filters was measured by using the TopCount-NXT reader (Packard).

[2] = tested on: plasma protein; experiment: Determination of plasma protein binding (equilibrium dialysis, RED); type: in vitro ADME; details: 4 hours at 37° C.
Description: Determination of plasma protein binding The pharmacokinetic and pharmacodynamic properties of chemicals/drugs are largely a function of the reversible binding of chemicals to plasma or serum proteins. […] Consequently, the extent of the plasma protein binding (PPB) of a compound influences its action as well as its distribution and elimination.
The determination of plasma protein binding (PPB) of a compound is enabled by equilibrium dialysis, an accepted and standard method for reliable estimation of the non-bound drug fraction in plasma. RED (Rapid Equilibrium Dialysis) device insert is made of two side-by-side chambers separated by an O-ring-sealed vertical cylinder of dialysis membrane (MWCO ˜8,000). […] After 4 hours incubation at 37° C. under shaking, an aliquot is removed from each chamber and analyzed by a LC-MS/MS procedure enables the determination of both free and bound drug.
The “free fraction” may be calculated as 100%−% rPPB (i.e. the complementary percentage of that disclosed in Table 4, corresponding to the drug concentration that is unbound and therefore available to engage biological target and elicit pharmacological activity).

[3] = target: human NK-2 receptor (Homo sapiens (Human), UniProt P21452); experiment: Selectivity assay: [125I]-Neurokinin A binding, human NK-2 receptor; details: 0.1 nM [125I]-Neurokinin A, CHO membranes; read-out: hNK-2 (Ki)
Procedure: The affinity of compounds of the invention for the NK-2 receptor was evaluated in CHO recombinant cells which express the human NK-2 receptor. Membrane suspensions were prepared from these cells. […] Binding assays were performed in a 25 mM HEPES/1 mM CaCl2)/5 mM MgCl2/0.5% BSA/10 μg/ml saponin, at pH 7.4. […] The radioactivity retained on the filters was measured by using the TopCount-NXT reader (Packard).

[4] = target: T1, human NK-3 receptor (Homo sapiens (Human), UniProt P29371); experiment: Aequorin functional assay with human NK-3 receptor (antagonist testing vs NKA); type: cell-based; details: CHO cells, NKA at EC80 (3 nM); read-out: Functional assay: Aequorin assay with human NK-3 receptor hNK-3-AEQ (antagonist IC50)
Procedure: Aequorin Assay with Human NK-3 Receptor
Changes in intracellular calcium levels are a recognized indicator of G protein-coupled receptor activity. The efficacy of compounds of the invention to inhibit NKA-mediated NK-3 receptor activation was assessed by an in vitro Aequorin functional assay. Chinese Hamster Ovary recombinant cells expressing the human NK-3 receptor and a construct that encodes the photoprotein apoaequorin were used for this assay. In the presence of the cofactor coelenterazine, apoaequorin emits a measurable luminescence that is proportional to the amount of intracellular (cytoplasmic) free calcium.
The antagonist activity of compounds of the invention is measured following pre-incubation (3 minutes) of the compound (at various concentrations) with the cells, followed by addition of the reference agonist (NKA) at a final concentration equivalent to the EC80 (3 nM) and recording of emitted light (FDSS 6000 Hamamatsu) over the subsequent 90-second period. The intensity of the emitted light is integrated using the reader software. Compound antagonist activity is measured based on the concentration-dependent inhibition of the luminescence response to the addition of Neurokinin A.

[5] = target: T1, human NK-3 receptor; experiment: 3H-SB222200 binding competition assay with human NK-3 receptor
Procedure: The affinity of compounds of the invention for the human NK-3 receptor was determined by measuring the ability of compounds of the invention to competitively and reversibly displace a well-characterized NK-3 radioligand in a concentration-dependent manner.
^3H-SB222200 Binding Competition Assay with Human NK-3 Receptor
Membranes were prepared from Chinese hamster ovary recombinant cells stably expressing the human NK-3 receptor. The membranes were incubated with 5 nM ^3H-SB222200 (ARC) in a HEPES 25 mM/NaCl 0.1M/CaCl2 1 mM/MgCl2 5 mM/BSA 0.5%/Saponin 10 μg/ml buffer at pH 7.4 and various concentrations of compounds of the invention. The amount of ^3H-SB222200 bound to the receptor was determined after filtration by the quantification of membrane associated radioactivity using the TopCount-NXT reader (Packard).

[6] = Table 2, 5 nM 3H-SB222200, CHO membranes, read-out: Competitive binding assay with human NK-3 receptor hNK-3 (Ki)
[7] = Table 3 (selectivity table), read-out: hNK-3 (Ki)

T1 sequence (P29371 whole entry): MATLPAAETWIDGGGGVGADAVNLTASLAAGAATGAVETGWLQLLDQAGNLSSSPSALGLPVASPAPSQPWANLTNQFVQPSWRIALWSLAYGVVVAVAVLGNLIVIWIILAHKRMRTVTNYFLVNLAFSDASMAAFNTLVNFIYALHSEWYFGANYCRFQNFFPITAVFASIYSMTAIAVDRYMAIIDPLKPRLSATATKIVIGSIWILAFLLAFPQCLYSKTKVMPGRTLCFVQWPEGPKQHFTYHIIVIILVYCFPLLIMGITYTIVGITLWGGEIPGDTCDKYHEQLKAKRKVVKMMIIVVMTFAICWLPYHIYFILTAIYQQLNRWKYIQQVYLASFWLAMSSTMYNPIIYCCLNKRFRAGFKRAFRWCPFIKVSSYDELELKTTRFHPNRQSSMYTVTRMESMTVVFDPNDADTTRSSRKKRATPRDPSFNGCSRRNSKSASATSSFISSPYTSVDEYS
Sequence of human NK-2 receptor (P21452 whole entry): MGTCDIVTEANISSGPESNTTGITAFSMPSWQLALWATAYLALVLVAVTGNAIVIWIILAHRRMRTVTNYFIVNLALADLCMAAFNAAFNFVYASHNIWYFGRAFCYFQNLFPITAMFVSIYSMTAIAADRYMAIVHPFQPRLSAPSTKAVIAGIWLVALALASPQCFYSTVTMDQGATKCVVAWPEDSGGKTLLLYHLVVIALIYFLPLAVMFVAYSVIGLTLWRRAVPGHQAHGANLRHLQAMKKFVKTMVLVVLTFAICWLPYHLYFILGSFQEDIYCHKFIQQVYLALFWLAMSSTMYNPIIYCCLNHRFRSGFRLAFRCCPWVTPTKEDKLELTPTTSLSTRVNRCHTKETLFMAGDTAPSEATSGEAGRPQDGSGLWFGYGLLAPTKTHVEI
Sequence of human NK-1 receptor (P25103 whole entry): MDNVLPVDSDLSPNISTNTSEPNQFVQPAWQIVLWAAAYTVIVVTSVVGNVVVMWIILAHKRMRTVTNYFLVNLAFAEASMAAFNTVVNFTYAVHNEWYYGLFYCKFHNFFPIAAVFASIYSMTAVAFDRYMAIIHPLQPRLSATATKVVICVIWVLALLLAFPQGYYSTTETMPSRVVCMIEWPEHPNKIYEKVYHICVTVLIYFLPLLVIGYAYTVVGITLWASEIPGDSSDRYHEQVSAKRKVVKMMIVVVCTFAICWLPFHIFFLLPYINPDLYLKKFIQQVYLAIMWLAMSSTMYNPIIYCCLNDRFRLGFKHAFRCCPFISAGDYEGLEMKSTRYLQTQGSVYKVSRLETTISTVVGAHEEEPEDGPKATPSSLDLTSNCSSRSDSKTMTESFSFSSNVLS

SMILES | Ki [1] [µM] | Exposure (% rPPB), bound drug fraction to plasma protein [2] [%] | Ki [3] [µM] | IC50 [4] [µM] | Ki [5, 6] [µM] | Ki [5, 7] [µM]
Cc1nsc(-c2nnc3n2CCN(C(=O)c2ccc(F)c(F)c2F)C3C)n1 (racemic) [Compound 33, (8-methyl-3-(3-methyl-1,2,4-thiadiazol-5-yl)-5,6-dihydro-[1,2,4]triazolo[4,3-a]pyrazin-7(8H)-yl)(2,3,4-trifluorophenyl)methanone] | > 30 | 29 | > 30 | 0.12 | 0.089 | 0.089
Cc1nsc(-c2nnc3n2CCN(C(=O)c2cc(F)c(F)c(F)c2)[C@@H]3C)n1 [Compound 7, (R)-(8-methyl-3-(3-methyl-1,2,4-thiadiazol-5-yl)-5,6-dihydro-[1,2,4]triazolo[4,3-a]pyrazin-7(8H)-yl)(3,4,5-trifluorophenyl)methanone] | > 30 | 26 | 36 | 0.03 | 0.026 | 0.026
COc1cccc(C(=O)N2CCn3c(-c4nc(C)ns4)nnc3[C@H]2C)c1 [Compound 27, (R)-(3-methoxyphenyl)(8-methyl-3-(3-methyl-1,2,4-thiadiazol-5-yl)-5,6-dihydro-[1,2,4]triazolo[4,3-a]pyrazin-7(8H)-yl)methanone] |  | 24 |  |  |  | 
Cc1ccc(C(=O)N2CCn3c(-c4nc(C)ns4)nnc3[C@H]2C)cc1 [Compound 19, (R)-(8-methyl-3-(3-methyl-1,2,4-thiadiazol-5-yl)-5,6-dihydro-[1,2,4]triazolo[4,3-a]pyrazin-7(8H)-yl)(p-tolyl)methanone] | > 30 | 51 | > 30 | 0.11 | 0.056 | 0.056
Cc1nsc(-c2nnc3n2CCN(C(=O)c2ccc(C#N)cc2)[C@@H]3C)n1 [Compound 29, (R)-4-(8-methyl-3-(3-methyl-1,2,4-thiadiazol-5-yl)-5,6,7,8-tetrahydro-[1,2,4]triazolo[4,3-a]pyrazine-7-carbonyl)benzonitrile] | > 30 | 10 | > 30 | 0.17 | 0.15 | 0.15
Cc1nsc(-c2nnc3n2CCN(C(=O)c2ccc(Cl)cc2)C3C)n1 (racemic) [Compound 37, (4-chlorophenyl)(8-methyl-3-(3-methyl-1,2,4-thiadiazol-5-yl)-5,6-dihydro-[1,2,4]triazolo[4,3-a]pyrazin-7(8H)-yl)methanone] | 32 |  | > 30 | 0.052 | 0.041 | 0.041
Cc1nsc(-c2nnc3n2CCN(C(=O)c2ccc(Cl)c(F)c2)C3C)n1 (racemic) [Compound 36, (4-chloro-3-fluorophenyl)(8-methyl-3-(3-methyl-1,2,4-thiadiazol-5-yl)-5,6-dihydro-[1,2,4]triazolo[4,3-a]pyrazin-7(8H)-yl)methanone] | > 30 | 60 | 36 | 0.058 | 0.043 | 0.043
Cc1nsc(-c2nnc3n2CCN(C(=O)c2cc(F)c(F)c(F)c2F)C3C)n1 (racemic) [Compound 31, (8-methyl-3-(3-methyl-1,2,4-thiadiazol-5-yl)-5,6-dihydro-[1,2,4]triazolo[4,3-a]pyrazin-7(8H)-yl)(2,3,4,5-tetrafluorophenyl)methanone] | > 30 | 31 | > 30 | 0.064 | 0.07 | 0.07
Cc1nsc(-c2nnc3n2CCN(C(=O)c2ccccc2C)[C@@H]3C)n1 [Compound 26, (R)-(8-methyl-3-(3-methyl-1,2,4-thiadiazol-5-yl)-5,6-dihydro-[1,2,4]triazolo[4,3-a]pyrazin-7(8H)-yl)(o-tolyl)methanone] | > 30 | 19 | > 30 | 0.074 | 0.088 | 0.088
CC(F)c1noc(-c2nnc3n2CCN(C(=O)c2ccc(F)cc2)[C@@H]3C)n1 (single isomer, unassigned) [Compound 45-2] | > 30 | 33 | > 30 | 0.148 | 0.083 | 0.083
Cc1nsc(-c2nnc3n2CCN(C(=O)c2cccc(Cl)c2)[C@@H]3C)n1 [Compound 16, (R)-(3-chlorophenyl)(8-methyl-3-(3-methyl-1,2,4-thiadiazol-5-yl)-5,6-dihydro-[1,2,4]triazolo[4,3-a]pyrazin-7(8H)-yl)methanone] | > 30 | 36 | 37 | 0.071 | 0.049 | 0.049
Cc1nsc(-c2nnc3n2CCN(C(=O)c2ccc(C(F)(F)F)cc2)[C@@H]3C)n1 [Compound 21, (R)-(8-methyl-3-(3-methyl-1,2,4-thiadiazol-5-yl)-5,6-dihydro-[1,2,4]triazolo[4,3-a]pyrazin-7(8H)-yl)(4-(trifluoromethyl)phenyl)methanone] | > 30 | 38 | > 30 | 0.15 | 0.063 | 0.063
CCC1c2nnc(-c3nc(C)ns3)n2CCN1C(=O)c1ccc(F)cc1 (racemic) [Compound 23, (8-ethyl-3-(3-methyl-1,2,4-thiadiazol-5-yl)-5,6-dihydro-[1,2,4]triazolo[4,3-a]pyrazin-7(8H)-yl)(4-fluorophenyl)methanone] |  | 34 |  |  |  | 
Cc1nsc(-c2nnc3n2CCN(C(=O)c2ccc(F)cc2)[C@@H]3CCO)n1 [Compound 11, (R)-(4-fluorophenyl)(8-(2-hydroxyethyl)-3-(3-methyl-1,2,4-thiadiazol-5-yl)-5,6-dihydro-[1,2,4]triazolo[4,3-a]pyrazin-7(8H)-yl)methanone] | 22 |  | > 30 | 0.073 | 0.032 | 0.032
Cc1nsc(-c2nnc3n2CCN(C(=O)c2ccc(Cl)cc2)[C@@H]3C)n1 [Compound 3, (R)-(4-chlorophenyl)(8-methyl-3-(3-methyl-1,2,4-thiadiazol-5-yl)-5,6-dihydro-[1,2,4]triazolo[4,3-a]pyrazin-7(8H)-yl)methanone] | > 30 |  | > 30 | 0.032 | 0.019 | 0.019
